Data taken from patent US11312675B2, “Crystalline polymorphs of 1,6-dibromo-1,6-dideoxy-dulcitol” (Targent, LLC, priority 2015, dated 2022).

Columns and labels:
[1] = Kellner et al., Nature (1967); cited from earlier work
[2] = reported in the literature; cited from earlier work
[3] = Stability tests (storage, analysed by XRPD); assay type: physicochemical
Description: The sample was stored in the following conditions (a) 25° C. and 60% RH for 7 days and (b) 60° C. and 75% RH for 3 days. The samples were analyzed after the test by XRPD.

[4] = Thermogravimetric analysis (TGA); assay type: physicochemical; conditions: heating from 25° C. to 450° C. at 10K/min
Description: The analysis was carried out using the Mettler Toledo Stare System with the following parameters. The sample was weighed in an aluminum pan hermetically sealed with an aluminum pierced cover. The analysis was performed heating the sample from 25° C. to 450° C. at 10K/min.

O[C@H]([C@H](O)[C@@H](O)CBr)[C@H](O)CBr [DBD, 1,6-dibromo-1,6-dideoxy-dulcitol]
antitumor effect [1]: selective a vigorous antitumor effect
solubility [2]: poorly soluble

O[C@H]([C@H](O)[C@@H](O)CBr)[C@H](O)CBr [crystalline DBD polymorph, 1,6-dibromo-1,6-dideoxy-dulcitol]
stability of the crystalline form (XRPD after storage) ([3]; 25° C. and 60% RH for 7 days): stable
stability of the crystalline form (XRPD after storage) ([3]; 60° C. and 75% RH for 3 days): stable
degradation of the sample (TGA profile) [4]: approximately 170 °C
